Where “and” joins values, the source holds several entries; their conditions need not be identical. Equal values may be shown once.
What was measured:
[1] = Cyclic voltammetry, Fe(III)/Fe(II) electrode potential; assay type: physicochemical; settings: for electrode potential (E1/2) vs. Ag/AgCl: 0.10 M potassium chloride
Experimental: Cyclic voltammetry experiments were carried out in aqueous solutions containing 0.10 M potassium chloride at acidic and neutral pH values with potassium ferricyanide salt in aqueous solution as a reference (Figure S8, Supplementary Materials). […] The electrode potential (E1/2) of Fe(L1)(OH2) at pH 3 was 227 mV vs. Ag/AgCl (515 mV vs. normal hydrogen electrode, NHE) and was −209 mV vs. Ag/AgCl (79 mV vs. NHE) at pH 7. […] At pH 3 the E1/2 was estimated as 264 mV vs. Ag/AgCl (552 mV vs. NHE), and, at pH 7, it was estimated as −618 mV vs. Ag/AgCl (−330 mV vs. NHE). For comparison, the E1/2 of Fe(L3)(OH2) at pH 3 was reported as 112 mV vs. Ag/AgCl (400 mV vs. NHE) and, at pH 7, the value was −588 mV vs. Ag/AgCl (−300 mV vs. NHE).
Cyclic voltammetry measurements were performed in 10.0-mL aqueous solutions containing 0.100 M […] as supporting electrolyte and 1.00 mM Fe(III) complexes. A standard three-electrode cell was used with a polished glassy carbon as the working electrode, a Pt wire as the auxiliary electrode, and an Ag/AgCl (1.00 mM) reference electrode. The samples were purged with extra pure N2 gas to remove the dissolved oxygen for each measurement. Current was measured with a 10-s prescan delay between −1.5 V and 1.5 V at a sweep rate of 100 and 500 mV/s, where 1.00 mM ferrocyanide was used as a standard solution. The redox potential of Fe(II)/(III) was calculated from the anodic (Epa) and cathodic (Epc) potentials, as EFe(II)/(III) = (Epa + Epc)/2 in reference to Ag/AgCl (1.00 mM), then converted to a value referenced to the normal hydrogen electrode (NHE).

[2] = Aqueous solubility (observations); assay type: physicochemical; settings: for aqueous solubility: words
[3] = T1/T2 relaxivity measurements (4.7 T MRI scanner, 9.4 T NMR); settings: pH 7.4, 37 °C; for r1 4.7 T / r2 4.7 T / r1 9.4 T: buffer
Experimental: The r1 and r2 relaxivity of the three complexes in buffer and HSA on a 4.7-T MRI scanner and 9.4-T NMR spectrometer are shown in Table 2. In buffer, the r1 relaxivity values of Fe(L1)(OH2) and Fe(L3)(OH2) are similar at 2.0 mM^−1∙s^−1 and 2.2. mM^−1∙s^−1, respectively, at 4.7 T. Both complexes have higher relaxivity than Fe(EDTA) (1.4 mM^−1∙s^−1 at 4.7 T) which has a single exchangeable inner-sphere water molecule. The r1 relaxivity value of the […] complex in buffer is two-fold less (1.0 mM^−1∙s^−1) than that of Fe(L1)(OH2) or […] at 4.7 T. In HSA-containing solutions, the r1 relaxivity values of Fe(L1)(OH2), Fe(L2) and Fe(L3)(OH2) change slightly, consistent with weak binding to this blood protein. […] As expected, increasing the field strength from 4.7 T to 9.4 T caused a decrease in the r1 relaxivity value of Gd(DTPA) to 2.5 mM^−1∙s^−1 from 3.1 mM^−1∙s^−1 [19]. […] This peculiar feature of Fe(III) complexes was predicted from simulation of NMRD profiles.
Relaxivity of the complexes was determined at 4.7 T (small animal MRI) and 9.4 T (400 MHz NMR). Both T1 and T2 experiments were performed at 37 °C for the concentration range of 50.0 µM to 0.400 mM Fe(III) complex. The solutions contained 0.100 M NaCl and HEPES buffer (pH 7.4, 20 mM). An inversion recovery True FISP acquisition was used to measure T1 relaxation rate constants. T2 relaxation rates were measured by using multi-echo, Carr–Purcell–Meiboom–Gill spin-echo sequence with a fixed TR of 3000 ms and TE times ranging from 20–1200 ms. The T1 and T2 relaxivity values were calculated by using linear regression fitting of 1/T1 (s^−1) and 1/T2 (s^−1) versus concentration (mM) in Microsoft Excel.

Balb/c mice = assay: Dynamic T1-weighted MRI in mice after tail vein injection (4.7 T); assay type: in vivo
From the text: The two new Fe(III) complexes, Fe(L1)(OH2) and […], and the Gd(III) agent, Gd(DOTA), were studied in Balb/c mice on a small animal 4.7-T MRI scanner upon tail vein injection of the agent (Figure S24, Supplementary Materials). […] Biodistribution and pharmacokinetic clearance of the complexes in mice were monitored by using dynamic MRI.
In vivo imaging studies with the Fe(III) complexes were studied on at 4.7 T Bruker preclinical MRI in mice (BABC/cJ, Jackson Laboratory) in accordance with approved Institutional Animal Care and Use Committee (IACUC) protocols. The samples with a concentration of 0.050, 0.100, and 0.200 mmol [Fe]/kg. The Fe(III) complex stock solutions were adjusted to pH 7.2 by addition of meglumine and were injected intravenously via tail vein. MR data were recorded continuously for up to 1 h. Distribution studies and clearance kinetics were studied by using MR data acquired over several time points for up to 1 h, and additionally at 4 h and 24 h. For comparison, The Food and Drug Administration (FDA)-approved MRI contrast agent gadopentetate dimeglumine (Gd(DTPA), Magnevist®) and gadoterate meglumine (Gd(DOTA), Dotarem®) were injected at 50.0 μmol [Gd]/kg into separate group of mice and imaged as above.

solubility ([2]; pH 6–7, concentration needed for 17O-NMR) [mM] | Compound | electrode potential (E1/2) vs. Ag/AgCl ([1]; pH 3, aqueous) [mV] | electrode potential (E1/2) vs. NHE ([1]; pH 3, converted from Ag/AgCl) [mV] | electrode potential (E1/2) vs. Ag/AgCl ([1]; pH 7, aqueous) [mV] | electrode potential (E1/2) vs. NHE ([1]; pH 7, converted from Ag/AgCl) [mV] | aqueous solubility [2] | r1 4.7 T [3] | r2 4.7 T [3] [mM⁻¹ s⁻¹] | r1 9.4 T [3] [mM⁻¹ s⁻¹] | r1 in HSA 4.7 T [3] [mM⁻¹ s⁻¹] | r2 in HSA 4.7 T [3] [mM⁻¹ s⁻¹] | T1-weighted contrast enhancement compared with other agents (Balb/c mice; healthy mouse, 0.05 mmol/kg, kidneys/blood, up to 45 min) | kidney contrast enhancement in T1-weighted images (Balb/c mice; 0.20 mmol/kg, 5 min post-injection) | clearance pathway (Balb/c mice; Balb/c mice, dynamic MRI) | tolerability in mice (Balb/c mice; mouse, in vivo)
< 10 | C[C@H]([O-])CN1CCN(C[C@H](C)O)CCN(C[C@H](C)O)CC1.[Fe+3] [Fe(L2)] | ~264 | ~552 | ~−618 | ~−330 | moderate solubility | 0.97 ± 0.12 mM⁻¹ s⁻¹ | 1.8 ± 0.47 | 1.4 ± 0.08 | 1.2 ± 0.22 | 2.3 ± 1.1 | slightly more enhanced contrast in kidneys and blood than Fe(L1)(OH2) or the Gd(III) complexes |  |  | 
 | C[C@H]([O-])CN1CCN(CCCS(=O)(=O)[O-])CCN(C[C@H](C)O)CC1.O.[Fe+3] [Fe(L1)(OH2)] | 227 | 515 | −209 | 79 | excellent aqueous solubility | 2.0 mM⁻¹ s⁻¹ and 2.0 ± 0.19 mM⁻¹ s⁻¹ | 6.1 ± 0.77 | 2.0 ± 0.2 | 2.5 ± 0.63 | 5.5 ± 0.98 |  | Enhancement of kidney contrast was observed | cleared predominately by the renal system | tolerated well
